Measurements from ChEMBL document CHEMBL3885861, “Open TG-GATES”.

Species on record: Rattus norvegicus
Experiment: Open TG-GATES - Regimen: Single
Type: toxicity, organism-based, Sprague-Dawley
Set-up: regimen Single, gender Male, age 6 weeks
Conditions: in vivo, po, 300 mg/kg, route gavage, dose level Middle; for APTT / Bas / Eos / Fbg / Hb / Ht / Lym / MCH / MCHC / MCV / Mono / Neu / PT / Plat / RBC / Ret / WBC: tissue Blood; for KIDNEY_L / KIDNEY_R / KIDNEY_TOTAL: tissue Kidney; for LIVER: tissue Liver; for A/G / ALP / ALT / AST / BUN / CRE / Ca / Cl / DBIL / GLC / IP / K / LDH / Na / PL / RALB / TBIL / TC / TG / TP / gamma-GTP: tissue Plasma

C[C@H]1O[C@H](O[C@H]2[C@H](O)[C@@H](O)[C@@H](O[C@H]3[C@H](O)[C@@H](O)C(O)O[C@@H]3CO)O[C@@H]2CO)[C@H](O)[C@@H](O)[C@@H]1N[C@H]1C=C(CO)[C@@H](O)[C@H](O)[C@H]1O (some centres not stated) [ACARBOSE]
TERMINAL_BW (3 h): 199.8 g | APTT (3 h): 16.9 s | Bas (3 h): 0% | Eos (3 h): 0.8% | Fbg (3 h): 290.6 mg/dL | Hb (3 h): 13.5 g/dL | Ht (3 h): 41.4% | Lym (3 h): 77.8% | MCH (3 h): 21.2 pg | MCHC (3 h): 32.6% | MCV (3 h): 65.1 fL | Mono (3 h): 2.8% | Neu (3 h): 17.8% | PT (3 h): 13.4 s | Plat (3 h): 115.1 x10_4/uL | RBC (3 h): 636 x10_4/ul | Ret (3 h): 8.7% | WBC (3 h): 82.6 x10_2/uL | KIDNEY_L (3 h): 0.9 g | KIDNEY_R (3 h): 0.9 g | KIDNEY_TOTAL (3 h): 1.9 g | LIVER (3 h): 9 g | A/G (3 h): 0.9 | ALP (3 h): 1420.8 IU/L | ALT (3 h): 35.6 IU/L | AST (3 h): 75.4 IU/L | BUN (3 h): 9.8 mg/dL | CRE (3 h): 0.2 mg/dL | Ca (3 h): 10.9 mg/dL | Cl (3 h): 104.6 meq/L | DBIL (3 h): 0.004 mg/dL | GLC (3 h): 172.4 mg/dL | IP (3 h): 10 mg/dL | K (3 h): 4 meq/L | LDH (3 h): 67.8 IU/L | Na (3 h): 141.2 meq/L | PL (3 h): 140 mg/dL | RALB (3 h): 2.5 g/dL | TBIL (3 h): 0.066 mg/dL | TC (3 h): 79.8 mg/dL | TG (3 h): 51.6 mg/dL | TP (3 h): 5.2 g/dL | gamma-GTP (3 h): 1.2 IU/L | TERMINAL_BW (6 h): 198.7 g | APTT (6 h): 17 s | Bas (6 h): 0% | Eos (6 h): 0.8% | Fbg (6 h): 290.6 mg/dL | Hb (6 h): 13.2 g/dL | Ht (6 h): 40.6% | Lym (6 h): 75.8% | MCH (6 h): 20.8 pg | MCHC (6 h): 32.4% | MCV (6 h): 64 fL | Mono (6 h): 3% | Neu (6 h): 19.6% | PT (6 h): 13.5 s | Plat (6 h): 124.8 x10_4/uL | RBC (6 h): 635 x10_4/ul | Ret (6 h): 8.7% | WBC (6 h): 86.3 x10_2/uL | KIDNEY_L (6 h): 0.9 g | KIDNEY_R (6 h): 0.9 g | KIDNEY_TOTAL (6 h): 1.8 g | LIVER (6 h): 8.2 g | A/G (6 h): 0.9 | ALP (6 h): 1441 IU/L | ALT (6 h): 35 IU/L | AST (6 h): 70 IU/L | BUN (6 h): 9.6 mg/dL | CRE (6 h): 0.2 mg/dL | Ca (6 h): 10.8 mg/dL | Cl (6 h): 104 meq/L | DBIL (6 h): 0.004 mg/dL | GLC (6 h): 160.4 mg/dL | IP (6 h): 10.5 mg/dL | K (6 h): 4 meq/L | LDH (6 h): 57 IU/L | Na (6 h): 141.4 meq/L | PL (6 h): 133.6 mg/dL | RALB (6 h): 2.5 g/dL | TBIL (6 h): 0.058 mg/dL | TC (6 h): 71 mg/dL | TG (6 h): 38.6 mg/dL | TP (6 h): 5.2 g/dL | gamma-GTP (6 h): 1 IU/L | TERMINAL_BW (9 h): 195.2 g | APTT (9 h): 17 s | Bas (9 h): 0.4% | Eos (9 h): 0.8% | Fbg (9 h): 292.8 mg/dL | Hb (9 h): 13.5 g/dL | Ht (9 h): 42% | Lym (9 h): 80.4% | MCH (9 h): 20.7 pg | MCHC (9 h): 32% | MCV (9 h): 64.8 fL | Mono (9 h): 2.2% | Neu (9 h): 15.6% | PT (9 h): 13.4 s | Plat (9 h): 119.8 x10_4/uL | RBC (9 h): 650.2 x10_4/ul | Ret (9 h): 8.7% | WBC (9 h): 84.7 x10_2/uL | KIDNEY_L (9 h): 1 g | KIDNEY_R (9 h): 0.9 g | KIDNEY_TOTAL (9 h): 1.9 g | LIVER (9 h): 7.7 g | A/G (9 h): 0.9 | ALP (9 h): 1353.2 IU/L | ALT (9 h): 36.8 IU/L | AST (9 h): 76 IU/L | BUN (9 h): 8.6 mg/dL | CRE (9 h): 0.2 mg/dL | Ca (9 h): 10.3 mg/dL | Cl (9 h): 105.4 meq/L | DBIL (9 h): 0 mg/dL | GLC (9 h): 169.8 mg/dL | IP (9 h): 10.7 mg/dL | K (9 h): 3.8 meq/L | LDH (9 h): 61 IU/L | Na (9 h): 141.4 meq/L | PL (9 h): 131.4 mg/dL | RALB (9 h): 2.4 g/dL | TBIL (9 h): 0.06 mg/dL | TC (9 h): 77 mg/dL | TG (9 h): 36.2 mg/dL | TP (9 h): 5.2 g/dL | gamma-GTP (9 h): 1.2 IU/L | TERMINAL_BW (24 h): 210.8 g | APTT (24 h): 17.1 s | Bas (24 h): 0% | Eos (24 h): 1% | Fbg (24 h): 248.4 mg/dL | Hb (24 h): 13.1 g/dL | Ht (24 h): 40.2% | Lym (24 h): 76% | MCH (24 h): 21.3 pg | MCHC (24 h): 32.6% | MCV (24 h): 65.2 fL | Mono (24 h): 3.4% | Neu (24 h): 18.8% | PT (24 h): 13.3 s | Plat (24 h): 121 x10_4/uL | RBC (24 h): 617.4 x10_4/ul | Ret (24 h): 7.8% | WBC (24 h): 102.2 x10_2/uL | KIDNEY_L (24 h): 0.9 g | KIDNEY_R (24 h): 0.9 g | KIDNEY_TOTAL (24 h): 1.8 g | LIVER (24 h): 9.9 g | A/G (24 h): 0.9 | ALP (24 h): 1736 IU/L | ALT (24 h): 42.2 IU/L | AST (24 h): 71.8 IU/L | BUN (24 h): 13.4 mg/dL | CRE (24 h): 0.2 mg/dL | Ca (24 h): 10.9 mg/dL | Cl (24 h): 104.8 meq/L | DBIL (24 h): 0.012 mg/dL | GLC (24 h): 176.4 mg/dL | IP (24 h): 8 mg/dL | K (24 h): 3.9 meq/L | LDH (24 h): 60.6 IU/L | Na (24 h): 142.6 meq/L | PL (24 h): 134.8 mg/dL | RALB (24 h): 2.6 g/dL | TBIL (24 h): 0.062 mg/dL | TC (24 h): 71.2 mg/dL | TG (24 h): 74 mg/dL | TP (24 h): 5.4 g/dL | gamma-GTP (24 h): 1 IU/L
